{"source": "paper PMC12035797", "about": "“Peptidomimetics Activating the Proteasome: A New Perspective for Parkinson’s Treatment” (Journal of Medicinal Chemistry, 2025)", "key": {"[1]": {"test_system": "T1, human 20S proteasome, T-L peptidase", "T1 construct": "human proteasome isolated from erythrocytes; from tissue; host or cells: human erythrocytes", "assay": "Trypsin-like (T-L) activity of h20S probed with Boc-LRR-AMC", "format": "biochemical", "settings": "100 μM Boc-LRR-AMC", "description": "To assess the influence of substitutions increasing proteolytic stability on the modulators’ capacity to stimulate chymotrypsin-like, trypsin-like, and caspase-like activity of h20S, we used classic fluorogenic substrates: Suc-LLVY-AMC, Boc-LRR-AMC, and Z-LLE-AMC, respectively.\nThe effect of all synthesized peptidomimetics on the catalytic activity of the proteasome was tested using a human proteasome isolated from erythrocytes. Suc-LLVY-AMC, Boc-LRR-AMC, and Z-LLE-AMC fluorogenic substrates (Bachem, Bubendorf, Switzerland) were used for assessment of the chymotrypsin-, trypsin-, and caspase-like activities, respectively. A homemade FRET-type substrate Dabcyl-EDANS (Lys(Dabcyl)-[…]EDANS)-Gly)[26] was used as an additional probe. Stock solutions of the substrates and tested peptidomimetics were prepared in dimethyl sulfoxide (DMSO), ensuring that the final concentration of DMSO in all samples remained consistent at 2%. The small fluorogenic substrates were used at a final concentration of 100 μM, while Dabcyl-EDANS was prepared at a final concentration of 15 μM. […] Activity tests were conducted in 96-well plates using 50 mM Tris/HCl, pH 8.0, as an assay buffer. The final concentration of h20S proteasome was adjusted to 0.002 mg/mL (2.8 nM). The fluorescence of released aminomethylcoumarin (AMC) was monitored at 460 nm (λex was 380 nm), while the hydrolysis of Dabcyl-EDANS was detected by measuring emission at 493 nm (λex was set at 335 nm). Fluorescence measurements were taken continuously every 2 min over a 60 min period at 37 °C using a Tecan Infinite M200Pro spectrofluorometer (Tecan Trading AG, Männedorf, Switzerland). All activity assays were performed in at least three independent replicates. The relative activity was calculated in relation to the catalytic activity of the vehicle (DMSO)-treated latent proteasome, which was regarded as 100%. Statistical analysis was performed using the one-way ANOVA followed by Tukey’s post-hoc test. P-value <0.05 was considered statistically significant."}, "[2]": {"assay": "PAMPA, blood–brain barrier mimic", "format": "in vitro ADME", "settings": "500 μM, 37 °C, 22 h", "excerpt": "In neurodegenerative diseases, proteins prone to aggregation accumulate in the neuronal cells. Therefore, a necessary feature of potential drugs is not only permeability across the cell membrane but also the ability to cross the blood-brain barrier (BBB). To preliminarily investigate this feature, we performed parallel artificial membrane permeation assays (PAMPA) including as positive controls propranolol and Tat47-57, known for their ability to penetrate the blood-brain barrier. Dopamine hydrobromide was included as a negative control. For comparison, we also tested compound 1a, which is devoid of a CPP sequence. […] The PAMPA was performed as previously described.[21] Briefly, a 2% solution of porcine brain lipid membrane (PBL; Avanti Polar Lipids Inc., Alabaster, AL, USA) in anhydrous dodecane was used as a mimic of the blood-brain barrier. Propranolol hydrochloride (Merck, Darmstadt, Germany) and Tat47-57 (synthesized in-house) served as positive controls, while dopamine hydrobromide (Merck, Darmstadt, Germany) was used as a negative control. Stock solutions of the tested compounds and controls were prepared at a concentration of 10 mM in deionized water and then diluted to 500 μM using 0.1 M PBS containing 5% DMSO. The donor-acceptor plate assembly was incubated at 37 °C while being shaken at 250 rpm for 22 h. Absorbance at 290 nm was measured for propranolol using an Infinite […] plate reader (Infinite […] plate reader, Tecan). For the other samples, fluorescence measurements were performed after the compounds were reacted with 0.02% fluorescamine. The rate of passive diffusion was calculated as the linear velocity of permeation (Pe). The data represent an average of three independent biological replicates."}, "[3]": {"test_system": "human 20S proteasome (α-synuclein substrate)", "assay": "α-Synuclein degradation by h20S (SDS-PAGE)", "format": "biochemical", "settings": "10 μM modulator, 37 °C, 1.5 h; h20S alone = 100%", "description": "The effectiveness of the compounds has also been examined by using proteins as substrates. By means of SDS-PAGE electrophoresis, we checked the extent to which model proteins were digested by the 20S proteasome alone and after its stimulation by 10 μM modulators. […] After incubation with the enzyme in the presence of each modulator, less than 40% of synuclein remained. […] The experiment was performed as it was described.[36] Briefly, α-synuclein (rPeptide, […], USA) and Tau-441 (Novus Biologicals, Centennial, CO, USA) were dissolved in 20 mM HEPES buffer (pH 7.4) and mixed with a human 20S proteasome. Samples were incubated at 37 °C for 1.5 h, after which the reaction was terminated by adding 4× Laemmli buffer. The levels of undigested proteins were evaluated by SDS-PAGE. The band intensities of proteins incubated with […] in the presence of a modulator were compared to those of proteins incubated with the enzyme alone, which were set as 100%. Three independent experiments were performed for each protein. The results are presented as the means ± SD. One-way ANOVA with Tukey's post-hoc test was used to determine statistical significance."}}}
{"smiles": "C[C@@H](O)[C@H](NC(=O)[C@H](Cc1ccccc1)NC(=O)[C@H](Cc1ccc(O)cc1)NC(=O)CN(CCCCN)C(=O)[C@H](CCCNC(=N)N)NC(=O)[C@H](CCCNC(=N)N)NC(=O)[C@H](CCCNC(=N)N)NC(=O)[C@H](CCC(N)=O)NC(=O)[C@H](CCCNC(=N)N)NC(=O)[C@H](CCCNC(=N)N)NC(=O)[C@H](CCCCN)NC(=O)[C@H](CCCCN)NC(=O)[C@@H](N)CCCNC(=N)N)C(=O)NCC(=O)N[C@@H](CO)C(=O)N[C@@H](CCCCN)C(=O)N[C@@H](CC(=O)O)C(=O)N[C@@H](Cc1c[nH]c2ccccc12)C(=O)N[C@@H](CCCNC(=N)N)C(=O)N[C@@H](CO)C(=O)N[C@@H](Cc1ccc(O)cc1)C(=O)N[C@@H](Cc1ccc(O)cc1)C(=O)N[C@@H](CO)C(=O)O", "note": "[1f]", "values": [{"measurement": "T-L stimulating capacity, Boc-LRR-AMC", "setting": "[1]", "value": "activated the T-L less and less with an increasing concentration"}, {"measurement": "permeability across artificial BBB membrane, PAMPA", "setting": "[2]", "value": "had the ability to penetrate the artificial membrane mimicking the BBB"}, {"measurement": "α-synuclein remaining after incubation with h20S", "setting": "[3]", "value": "less than 40%"}]}
